The text below walks through data of US20210047304A1, “Bromodomain Inhibitors” (AbbVie Inc., priority 2016, published 2021).

Molecules are shown by their SMILES.

For orientation: Ki means a measure of affinity in units of concentration, obtained from inhibition or displacement. Read a low Ki as higher affinity.

In this test the target is BRD4 (BDI_K57-E168) (Homo sapiens, UniProt O60885). Briefly: TR-FRET bromodomain binding assay, BRD4 BDI. How it is done:
A time-resolved fluorescence resonance energy transfer (TR-FRET) assay was used to determine the affinities of compounds of the Examples listed in Table 1 for each bromodomain of BRD4. […] An Alexa647-labeled BET-inhibitor was used as the fluorescent probe in the assay.
Compound dilution series were prepared in DMSO via an approximately 3-fold serial dilution. Compound dilutions were added directly into white, low-volume assay plates (Perkin Elmer Proxiplate 384 Plus #6008280) using a Labcyte Echo in conjunction with Labcyte Access and Thermo Multidrop CombinL robotics. Compounds were then suspended in eight microliters (μL) of assay buffer (20 mM Sodium Phosphate, pH 6.0, 50 mM NaCl, 1 mM Ethylenediaminetetraacetic acid disodium salt dihydrate, 0.01% Triton X-100, 1 mM DL-Dithiothreitol) containing His-tagged bromodomain, Europium-conjugated anti-His antibody (Invitrogen PV5596) and Alexa-647-conjugated probe.
After a one-hour equilibration at room temperature, TR-FRET ratios were determined using an Envision multilabel plate reader (Ex 340, Em 495/520).
TR-FRET data were normalized to the means of 24 no-compound controls (“high”) and 8 controls containing 1 μM un-labeled probe (“low”). Percent inhibition was plotted as a function of compound concentration and the data were fit with the 4 parameter logistic equation to obtain IC50s. Inhibition constants (Ki) were calculated from the IC50s, probe Kd and probe concentration.
Compound dilution series for Compounds A-E were prepared in DMSO via an approximately 3-fold serial dilution from 0.47 mM to 7.8 nM.
Compound dilutions were added directly into white, low-volume assay plates (Perkin Elmer Proxiplate 384 Plus #6008280) using a Labcyte Echo in conjunction with Labcyte Access and Thermo Multidrop CombinL robotics. Compounds were then suspended in eight microliters (μL) of assay buffer (20 mM Sodium Phosphate, pH 6.0, 50 mM NaCl, 1 mM Ethylenediaminetetraacetic acid disodium salt dihydrate, 0.01% Triton X-100, 1 mM DL-Dithiothreitol) containing His-tagged bromodomain, Europium-conjugated anti-His antibody (Invitrogen PV5596) and Alexa-647-conjugated probe.
TR-FRET data were normalized to the means of 24 no-compound controls (“high”) and 8 controls containing 1 μM un-labeled probe (“low”). Percent inhibition was plotted as a function of compound concentration and the data were fit with the 4 parameter logistic equation to obtain IC50s. Inhibition constants (Ki) were calculated from the IC50s, probe Kd and probe concentration. Typical Z′ values were between 0.65 and 0.75. The minimum significant ratio was determined to evaluate assay reproducibility (Eastwood et al., (2006) J Biomol Screen, 11: 253-261). The MSR was determined to be 2.03 for BDI and 1.93 for BDII, and a moving MSR (last six run MSR overtime) for both BDI and BDII was typically <3.
Turning to `Cc1cc(F)cc(C)c1Oc1ccc(C(C)(C)O)cc1-c1cn(C)c(=O)cc1O[C@H]1CC[C@H](N2C(=O)N(C)C3(CC3)C2=O)CC1` [Example 145, 6-[trans-4-({5-[2-(4-fluoro-2,6-dimethylphenoxy)-5-(2-hydroxypropan-2-yl)phenyl]-1-methyl-2-oxo-1,2-dihydropyridin-4-yl}oxy)cyclohexyl]-4-methyl-4,6-diazaspiro[2.4]heptane-5,7-dione], the Ki is more than 13 µM. `Cc1cc(F)cc(C)c1Oc1ccc(C(C)(C)O)cc1-c1cn(C)c(=O)cc1O[C@H]1CC[C@@H](C(=O)O)CC1` [Example 75, cis-4-({5-[2-(4-fluoro-2,6-dimethylphenoxy)-5-(2-hydroxypropan-2-yl)phenyl]-1-methyl-2-oxo-1,2-dihydropyridin-4-yl}oxy)cyclohexane-1-carboxylic acid] had a Ki of more than 13 µM. As for `Cc1cccc(C)c1Oc1ccc(C(C)(C)O)cc1-c1cn(C)c(=O)cc1O[C@H]1CC[C@H](N2CCCC2=O)CC1` [Example 27, 5-[2-(2,6-dimethylphenoxy)-5-(2-hydroxypropan-2-yl)phenyl]-1-methyl-4-{[trans-4-(2-oxopyrrolidin-1-yl)cyclohexyl]oxy}pyridin-2(1H)-one], the figure is 1.9 µM; as for `CNC(=O)[C@H]1CC[C@H](Oc2cc(=O)n(C)cc2-c2cc(C(C)(C)O)ccc2Oc2c(C)cc(F)cc2C)CC1` [Example 101, trans-4-({5-[2-(4-fluoro-2,6-dimethylphenoxy)-5-(2-hydroxypropan-2-yl)phenyl]-1-methyl-2-oxo-1,2-dihydropyridin-4-yl}oxy)-N-methylcyclohexane-1-carboxamide], 3.53 µM; as for `Cc1cc(F)cc(C)c1Oc1ccc(C(C)(C)O)cc1-c1cn(C)c(=O)cc1O[C@H]1CC[C@H](N2CC(C)(C)CC2=O)CC1` [Example 120, 4-{[trans-4-(4,4-dimethyl-2-oxopyrrolidin-1-yl)cyclohexyl]oxy}-5-[2-(4-fluoro-2,6-dimethylphenoxy)-5-(2-hydroxypropan-2-yl)phenyl]-1-methylpyridin-2(1H)-one], 0.891 µM. For `Cc1cc(F)cc(C)c1Oc1ccc(C(C)(C)O)cc1-c1cn(C)c(=O)cc1O[C@H]1CC[C@H](N2C(=O)[C@@H]3CCCN3C2=O)CC1` [Example 91, (7aS)-2-[trans-4-({5-[2-(4-fluoro-2,6-dimethylphenoxy)-5-(2-hydroxypropan-2-yl)phenyl]-1-methyl-2-oxo-1,2-dihydropyridin-4-yl}oxy)cyclohexyl]tetrahydro-1H-pyrrolo[1,2-c]imidazole-1,3(2H)-dione], the Ki amounted to 5.86 µM. As for `CCc1c(-c2cc(C(C)(C)O)ccc2Oc2c(C)cc(F)cc2C)c(O[C@H]2CC[C@H](N3CCCC3=O)CC2)cc(=O)n1C` [Example 33, 6-ethyl-5-[2-(4-fluoro-2,6-dimethylphenoxy)-5-(2-hydroxypropan-2-yl)phenyl]-1-methyl-4-{[trans-4-(2-oxopyrrolidin-1-yl)cyclohexyl]oxy}pyridin-2(1H)-one], the figure is more than 13 µM; as for `CC(=O)N([C@H](C)c1ccc(Oc2c(C)cccc2C)c(-c2cn(C)c(=O)cc2O[C@H]2CC[C@H](NC(=O)C3(C)CC3)CC2)c1)[C@@H](C)c1ccccc1` [Example 116, N-{trans-4-[(5-{5-[(1R)-1-{acetyl[(1S)-1-phenylethyl]amino}ethyl]-2-(2,6-dimethylphenoxy)phenyl}-1-methyl-2-oxo-1,2-dihydropyridin-4-yl)oxy]cyclohexyl}-1-methylcyclopropane-1-carboxamide], more than 13 µM. Regarding `Cc1cc(F)cc(C)c1Oc1ccc(C(C)(C)O)cc1-c1cn(C)c(=O)cc1O[C@H]1CC[C@H](N2C(=O)N[C@@H](C)C2=O)CC1` [Example 124, (5S)-3-[trans-4-({5-[2-(4-fluoro-2,6-dimethylphenoxy)-5-(2-hydroxypropan-2-yl)phenyl]-1-methyl-2-oxo-1,2-dihydropyridin-4-yl}oxy)cyclohexyl]-5-methylimidazolidine-2,4-dione], the Ki was more than 13 µM. For the compound `Cc1cc(F)cc(C)c1Oc1ccc(C(C)(C)O)cc1-c1cn(C)c(=O)cc1O[C@H]1CC[C@H](N2CCCS2(=O)=O)CC1` [Example 52, 2-[trans-4-({5-[2-(4-fluoro-2,6-dimethylphenoxy)-5-(2-hydroxypropan-2-yl)phenyl]-1-methyl-2-oxo-1,2-dihydropyridin-4-yl}oxy)cyclohexyl]-1lambda^6,2-thiazolidine-1,1-dione], the Ki came out at 3.48 µM. As for `Cc1cc(F)cc(C)c1Oc1ccc(C(C)(C)O)cc1-c1cn(C)c(=O)cc1O[C@H]1CC[C@@H](C#N)CC1` [Example 68, cis-4-({5-[2-(4-fluoro-2,6-dimethylphenoxy)-5-(2-hydroxypropan-2-yl)phenyl]-1-methyl-2-oxo-1,2-dihydropyridin-4-yl}oxy)cyclohexane-1-carbonitrile], the figure is 1.95 µM; as for `CC=C1NC(=O)N([C@H]2CC[C@H](Oc3cc(=O)n(C)cc3-c3cc(C(C)(C)O)ccc3Oc3c(C)cc(F)cc3C)CC2)C1=O` [Example 133, 5-ethylidene-3-[trans-4-({5-[2-(4-fluoro-2,6-dimethylphenoxy)-5-(2-hydroxypropan-2-yl)phenyl]-1-methyl-2-oxo-1,2-dihydropyridin-4-yl}oxy)cyclohexyl]imidazolidine-2,4-dione], more than 13 µM. Take `Cc1cc(F)cc(C)c1Oc1ccc(C(C)(C)O)cc1-c1cn(C)c(=O)cc1O[C@H]1CC[C@H](N2CCCCCC2=O)CC1` [Example 37, 1-[trans-4-({5-[2-(4-fluoro-2,6-dimethylphenoxy)-5-(2-hydroxypropan-2-yl)phenyl]-1-methyl-2-oxo-1,2-dihydropyridin-4-yl}oxy)cyclohexyl]azepan-2-one]: the affinity corresponds to a Ki of 2.51 µM. As for `Cc1cc(F)cc(C)c1Oc1ccc(C(C)(C)O)cc1-c1cn(C)c(=O)cc1O[C@H]1CC[C@H](C(=O)N2CCCC2)CC1` [Example 62, 5-[2-(4-fluoro-2,6-dimethylphenoxy)-5-(2-hydroxypropan-2-yl)phenyl]-1-methyl-4-{[trans-4-(pyrrolidine-1-carbonyl)cyclohexyl]oxy}pyridin-2(1H)-one], the Ki is 8.37 µM.

With `Cc1cc(F)cc(C)c1Oc1ccc(C(C)(C)O)cc1-c1cn(C)c(=O)cc1O[C@H]1CC[C@@H](C(=O)N2CCCC2)CC1` [Example 77, 5-[2-(4-fluoro-2,6-dimethylphenoxy)-5-(2-hydroxypropan-2-yl)phenyl]-1-methyl-4-{[cis-4-(pyrrolidine-1-carbonyl)cyclohexyl]oxy}pyridin-2(1H)-one], the Ki is more than 13 µM. `CC(=O)NC1(C)CCC(Oc2cc(=O)n(C)cc2-c2cc(C(C)(C)O)ccc2Oc2c(C)cc(F)cc2C)CC1` (stereo not drawn) [Example 32, N-[trans-4-({5-[2-(4-fluoro-2,6-dimethylphenoxy)-5-(2-hydroxypropan-2-yl)phenyl]-1-methyl-2-oxo-1,2-dihydropyridin-4-yl}oxy)-1-methylcyclohexyl]acetamide] showed a Ki of 1.01 µM.

As to `Cc1cc(F)cc(C)c1Oc1ccc(C(C)(C)O)cc1-c1cn(C)c(=O)cc1O[C@H]1CC[C@H](N2CCOCC2=O)CC1` [Example 40, 4-[trans-4-({5-[2-(4-fluoro-2,6-dimethylphenoxy)-5-(2-hydroxypropan-2-yl)phenyl]-1-methyl-2-oxo-1,2-dihydropyridin-4-yl}oxy)cyclohexyl]morpholin-3-one], the affinity corresponds to a Ki of 2.03 µM. With `COCC(C)(C)C(=O)N[C@H]1CC[C@H](Oc2cc(=O)n(C)cc2-c2cc(C(C)(C)O)ccc2Oc2c(C)cc(F)cc2C)CC1` [Example 71, N-[trans-4-({5-[2-(4-fluoro-2,6-dimethylphenoxy)-5-(2-hydroxypropan-2-yl)phenyl]-1-methyl-2-oxo-1,2-dihydropyridin-4-yl}oxy)cyclohexyl]-3-methoxy-2,2-dimethylpropanamide], the affinity corresponds to a Ki of 5.08 µM.

For the compound `Cc1cc(F)cc(C)c1Oc1ccc(C(C)(C)O)cc1-c1cn(C)c(=O)cc1O[C@H]1CC[C@H](N2C(=O)C3COCCN3C2=O)CC1` (relative stereo) [Example 126, 2-[trans-4-({5-[2-(4-fluoro-2,6-dimethylphenoxy)-5-(2-hydroxypropan-2-yl)phenyl]-1-methyl-2-oxo-1,2-dihydropyridin-4-yl}oxy)cyclohexyl]tetrahydro-1H-imidazo[5,1-c][1,4]oxazine-1,3(2H)-dione], the Ki was more than 13 µM.
